Eleven compounds from patent publication US10562842B2, “Use of polyaminoisoprenyl derivatives in antibiotic or antiseptic treatment” (UNIVERSITE D'AIX-MARSEILLE, priority 2011, dated 2020) can be followed below.

The subject of test [1] is Enterobacter aerogenes MDR Ea289. As to the kind of experiment: MIC of antibiotics ± test compound (MIC ratio), micro-broth dilution. The class given is cell-based. Particulars: Set 2; for MIC ratio (*) on Ea289 Chl: chloramphenicol, compound at MIC/4. How it is done:
The process consists of treating the MDR bacteria with the compounds of the invention in the presence of antibiotics.
(§1) Susceptibilities to antibiotics and compounds were determined in microplates by broth dilution method, as previously described. Minimal Inhibitory Concentrations (MICs) were determined with an inoculum of 10^6 CFU in 200 μL of MH broth containing two-fold serial dilutions of each drug. […] All MIC determinations were repeated at least three times in independent experiments.
The MICs of chloramphenicol±test compounds (MIC/4) were determined by the micro-broth dilution method (9). All MIC determinations were repeated at least three times in independent experiments. The MIC ratio corresponds to the ratio of the MIC of an antibiotic alone to the MIC of the same antibiotic in the presence of the tested compound (at MIC/4).
The compounds listed in Table 2 were tested for their ability to decrease the chloramphenicol MIC of Ea289, an Enterobacter aerogenes MDR strain (1). Each compound was first tested at MIC/4. […] All MIC determinations were repeated at least three times in independent experiments.
(§2) For reminder, the MIC ratio corresponds to the ratio of the MIC of the assessed antibiotic alone to the MIC of the same antibiotic in the presence of the tested compound (at MIC/4).

The test system of test [2] is Salmonella Thyphimurium MDR BN10055. The description is as above. It is filed as cell-based, Salmonella enterica serovar Typhimurium. Particulars: Set 2; for MIC ratio (*) on BN10055 Chl: chloramphenicol; for MIC ratio (*) on BN10055 Chl / MIC ratio (*) on BN10055 Dox / MIC ratio (*) on BN10055 Nal: compound at MIC/4; for MIC ratio (*) on BN10055 Dox: doxycycline; for MIC ratio (*) on BN10055 Nal: nalidixic acid. The procedure: The Enterobacter aerogenes Ea289 strain is a Kans derivative of the MDR clinical isolate Ea27, the acrB mutant, EaEP294, was constructed from Ea289. Multidrug-resistant Salmonella enterica serovar Typhimurium DT104 strains (BN10055) was isolated from cattle in France, the isogenic acrB derivative mutant, BN10055ΔacrB, was constructed from BN10055. Strains were maintained at −80° C. in 25% (v/v) glycerol for cryoprotection. Bacteria were routinely grown in Mueller-Hinton (MH) broth at 37° C.
as §1
[…] All MIC determinations were repeated at least three times in independent experiments. The MIC ratio corresponds to the ratio of the MIC of an antibiotic alone to the MIC of the same antibiotic in the presence of the tested compound (at MIC/4).
as §2

Test [3] concerns Enterobacter aerogenes MDR Ea289. The test is described as above. It is filed as cell-based. Particulars: compound at MIC/4, Set 2; for MIC ratio (*) on Ea289 Dox: doxycycline; for MIC ratio (*) on Ea289 Nal: nalidixic acid.
For test [4], the system named is strain IV2571223 - Escherichia coli pig (sensible). Briefly: MIC of antibiotics in the presence and absence of test compound, veterinary strains. It is filed as cell-based. Details: MIC for strain IV2571223, Doxycycline in the presence of test compound: unit not given beside the values. Particulars: compound at the Concentration (μM) (2-50). How it is done:
(§3) For each strain and each antibiotic, the MICs were determined in the presence and in the absence of one test compound.

Test [5] relates to strain IV2571418 - Escherichia coli pig (resistant). Described as above. Details: MIC for strain IV2571418, Doxycycline in the presence of test compound: unit not given beside the values. Particulars: compound at the Concentration (μM) (4-50). The class given is cell-based. How it is done:
as §3

In test [6] the test system is strain IV2570060 - Escherichia coli cattle (sensible). The test is described as above. It is filed as cell-based. Particulars: compound at the Concentration (μM) (4-50). How it is done: as §3
Test [7] relates to strain IV2570533 - Escherichia coli cattle (resistant). The description is as above. The class given is cell-based. Particulars: compound at the Concentration (μM) (0.896-12.6). The procedure:
as §3

With `CCN(CC)CCNCCCNC/C=C(\C)CCC=C(C)C` [Compound 21], in test [1], the “MIC ratio (*) on Ea289 Chl” value was 8-16. For the same compound, in test [2], the “MIC ratio (*) on BN10055 Chl” value stood at 16, the “MIC ratio (*) on BN10055 Dox” value is listed as 32 and the “MIC ratio (*) on BN10055 Nal” value came to 64. In test [3], the “MIC ratio (*) on Ea289 Dox” value is on record as 32 and the “MIC ratio (*) on Ea289 Nal” value amounted to 8.
As to `CC(C)=CCC/C(C)=C/CC/C(C)=C/CNCCCCCN` [Compound 18], in test [1], the “MIC ratio (*) on Ea289 Chl” value was 8-16. Further, in test [2], the “MIC ratio (*) on BN10055 Chl” value is given as 4-8, the “MIC ratio (*) on BN10055 Dox” value came to 16 and the “MIC ratio (*) on BN10055 Nal” value was 16. In test [3], the “MIC ratio (*) on Ea289 Dox” value stood at 64 and the “MIC ratio (*) on Ea289 Nal” value is 8.
With `CC(C)=CCC/C(C)=C/CC/C(C)=C/CNCCCN1CCOCC1` [Compound 23], in test [1], the “MIC ratio (*) on Ea289 Chl” value turned out to be 8. Besides, in test [2], the “MIC ratio (*) on BN10055 Chl” value is 8, the “MIC ratio (*) on BN10055 Dox” value worked out at 16 and the “MIC ratio (*) on BN10055 Nal” value is 32. Further, in test [3], the “MIC ratio (*) on Ea289 Dox” value came out at 32 and the “MIC ratio (*) on Ea289 Nal” value was 8.
Consider `CC(C)=CCC/C(C)=C/CC/C(C)=C/CNCCCN1CCN(CCCN)CC1` [Compound 15, {3-[4-(3-Amino-propyl)-piperazin-1-yl]-propyl}-((2E,6E)-3,7,11-trimethyl-dodeca-2,6,10-trienyl)-amine], for which the “MIC ratio (*) on Ea289 Chl” value in test [1] is 8. For the same compound, in test [2], the “MIC ratio (*) on BN10055 Chl” value is 8, the “MIC ratio (*) on BN10055 Dox” value is 32 and the “MIC ratio (*) on BN10055 Nal” value is given as 64. Moreover, in test [4], the “MIC for strain IV2571223, Doxycycline in the presence of test compound” value was 0.0625 and the “MIC for strain IV2571223, Tylosine in the presence of test compound” value is recorded as 32. For the same compound, in test [5], the “MIC for strain IV2571418, Doxycycline in the presence of test compound” value was determined as 4 and the “MIC for strain IV2571418, Tylosine in the presence of test compound” value is 32. Further, in test [6], the “MIC for strain IV2570060, Doxycycline in the presence of test compound” value is reported as 0.125 and the “MIC for strain IV2570060, Tylosine in the presence of test compound” value turned out to be 32. Moreover, in test [7], the “MIC for strain IV2570533, Doxycycline in the presence of test compound” value is recorded as 2 and the “MIC for strain IV2570533, Tylosine in the presence of test compound” value is given as 32. In test [3], the “MIC ratio (*) on Ea289 Dox” value came out at 128 and the “MIC ratio (*) on Ea289 Nal” value was 32.
Turning to `CC(C)=CCC/C(C)=C/CC/C(C)=C/CNCCCNCCCCN` [Compound 19], the “MIC ratio (*) on Ea289 Chl” value in test [1] is 8-16. Further, in test [2], the “MIC ratio (*) on BN10055 Chl” value is recorded as 8-16, the “MIC ratio (*) on BN10055 Dox” value is listed as 16 and the “MIC ratio (*) on BN10055 Nal” value is 64. For the same compound, in test [3], the “MIC ratio (*) on Ea289 Dox” value was determined as 64 and the “MIC ratio (*) on Ea289 Nal” value is 16.
In the case of `CC(C)=CCC/C(C)=C/CNCCCN(C)CCCN` [Compound 13, {3-[(3-Amino-propyl)-methyl-amino]-propyl}-((E)-3,7-dimethyl-octa-2,6-dienyl)-amine], the “MIC ratio (*) on Ea289 Chl” value in test [1] worked out at 16. Moreover, in test [2], the “MIC ratio (*) on BN10055 Chl” value is listed as 8-16, the “MIC ratio (*) on BN10055 Dox” value came out at 16 and the “MIC ratio (*) on BN10055 Nal” value is 32. Further, in test [3], the “MIC ratio (*) on Ea289 Dox” value came out at 16 and the “MIC ratio (*) on Ea289 Nal” value was 8.
Turning to `CC(C)=CCC/C(C)=C/CC/C(C)=C/CNCCCN` [Compound 16], the “MIC ratio (*) on Ea289 Chl” value in test [1] is 8-16. Besides, in test [2], the “MIC ratio (*) on BN10055 Chl” value is reported as 16-32, the “MIC ratio (*) on BN10055 Dox” value is listed as 32 and the “MIC ratio (*) on BN10055 Nal” value came out at 128. Also, in test [3], the “MIC ratio (*) on Ea289 Dox” value stood at 64 and the “MIC ratio (*) on Ea289 Nal” value was found to be 16.
For `CC(C)=CCC/C(C)=C/CC/C(C)=C/CNCCNCCNCCNCCNCCN` [Compound 35, [2-(2-{2-[2-(2-Amino-ethylamino)-ethylamino]-ethylamino}-ethylamino)-ethyl]-(3,7,11-trimethyl-dodeca-2,6,10-trienyl)-amine], in test [1] (doxycycline and nalidixic acid), the “MICs for doxycycline and nalidixic acid, Ea289” value is recorded as above 8. For the same compound, the “MICs for doxycycline and nalidixic acid, BN100055” value in test [2] (doxycycline and nalidixic acid) is listed as above 8. Besides, in test [4], the “MIC for strain IV2571223, Doxycycline in the presence of test compound” value is listed as 0.0625 and the “MIC for strain IV2571223, Tylosine in the presence of test compound” value was found to be 32. In addition, in test [5], the “MIC for strain IV2571418, Doxycycline in the presence of test compound” value was found to be 2 and the “MIC for strain IV2571418, Tylosine in the presence of test compound” value turned out to be 8. Besides, in test [6], the “MIC for strain IV2570060, Doxycycline in the presence of test compound” value turned out to be 0.0625 and the “MIC for strain IV2570060, Tylosine in the presence of test compound” value came out at 8. Moreover, in test [7], the “MIC for strain IV2570533, Doxycycline in the presence of test compound” value amounted to 1 and the “MIC for strain IV2570533, Tylosine in the presence of test compound” value turned out to be 4.
For `CC(C)=CCC/C(C)=C/CC/C(C)=C/CNCCCCN` [Compound 17], the “MIC ratio (*) on Ea289 Chl” value in test [1] is 8-16. In addition, in test [2], the “MIC ratio (*) on BN10055 Chl” value was 8, the “MIC ratio (*) on BN10055 Dox” value is on record as 16 and the “MIC ratio (*) on BN10055 Nal” value amounted to 64. For the same compound, in test [3], the “MIC ratio (*) on Ea289 Dox” value was 64 and the “MIC ratio (*) on Ea289 Nal” value is reported as 16.
Take `CC(C)=CCC/C(C)=C/CC/C(C)=C/CNCCCN1CCCC1` [Compound 22]: the “MIC ratio (*) on Ea289 Chl” value in test [1] is 8-16. In addition, in test [2], the “MIC ratio (*) on BN10055 Chl” value came out at 16, the “MIC ratio (*) on BN10055 Dox” value was found to be 32 and the “MIC ratio (*) on BN10055 Nal” value is reported as 128. Moreover, in test [3], the “MIC ratio (*) on Ea289 Dox” value stood at 32 and the “MIC ratio (*) on Ea289 Nal” value was found to be 16.
For the compound `CC(C)=CCC/C(C)=C/CC/C(C)=C/CNCCCNCCCN` [Compound 20], the “MIC ratio (*) on Ea289 Chl” value in test [1] was 8. In addition, in test [2], the “MIC ratio (*) on BN10055 Chl” value turned out to be 8, the “MIC ratio (*) on BN10055 Dox” value came out at 32 and the “MIC ratio (*) on BN10055 Nal” value is 64. In addition, in test [3], the “MIC ratio (*) on Ea289 Dox” value is listed as 32 and the “MIC ratio (*) on Ea289 Nal” value is reported as 8.
